Common to all, as to type: cell-based, Human
Holding throughout (conditions): steatosis-induced (OA/PA) Huh-7 cells; 10 μM; 24 hours

In one assay the test system is Ck2α mRNA. Nature of the assay: qRT-PCR Ck2α mRNA level in steatosis-induced Huh-7 cells. How it is done:
(§1) In Experimental Example 5, the Huh-7 cells were plated in 6 wells at 4×10^5 cells/mL and incubated under an atmosphere containing 5% CO2 at 37° C.
(§2) One day later, the cell density approached about 80 to 90%. The medium was changed to an FBS-free RPMI1640 medium, and incubated under an atmosphere containing 5% CO2 at 37° C. for 24 hours.
(§3) Huh-7 cells of each well, excluding control cells, were pretreated with an OA/PA mixture for one hour to induce steatosis. The control cells were pretreated with 1% FA-free BSA.
(§4) Each well was treated with 10 μM of a test compound, and then the cells were incubated for 24 hours. The control cells and OA/PA-treated cells were treated with DMSO. Cells of a positive control were treated with 10 μM of resveratrol, 10 μM of piperine, and 10 μM of YU2014. The medium was entirely aspirated, and the cells were washed with PBS (phosphate buffered saline, Corning, Manassas, Va., USA) two times.
(§5) Total RNA was extracted using a RNeasy RNA isolation kit (Qiagen, Hilden, Germany).
(§6) 10 μL of β-mercaptoethanol (Sigma-Aldrich) per 1 mL of lysis buffer was added, thereby preparing an RNA lysis buffer. […]
(§7) An RNA concentration was measured at O.D. 260 nm using a nanophotometer N60 (Implen, Munich, Germany). The concentration and purity of RNA were measured at O.D. 260/280 nm and calculated as a ratio. […]
(§8) Quantitative analyses for the genes in Table 3 were performed.
(In qPCR the cycle at which signal appears reflects the starting amount.)

Another assay deals with Sirt1 mRNA. Nature of the assay: qRT-PCR Sirt1 mRNA level in steatosis-induced Huh-7 cells. How it is done:
as §1, §2, §3, §4, §5, §6, §7, §8

Another assay has as its system Fgf21 mRNA. Nature of the assay: qRT-PCR Fgf21 mRNA level in steatosis-induced Huh-7 cells. How it is done: as §1, §2, §3, §4, §5, §6, §7, §8
A further assay concerns Pparα mRNA. Nature of the assay: qRT-PCR Pparα mRNA level in steatosis-induced Huh-7 cells. The protocol:
as §1, §2, §3, §4, §5, §6, §7, §8

On to `CCC(=O)N1CCN(C(=O)/C=C/C=C/c2ccc(OC)cc2)CC1` [R-18, (2E,4E)-5-(4-methoxyphenyl)-1-(4-propionylpiperazine-1-yl)penta-2,4-dien-1-one], for which the “Ck2α mRNA level (FIG. 19)” value in the assay with Ck2α mRNA is “greatly reduced”. Moreover, the “Sirt1 mRNA level (FIG. 16)” value with Sirt1 mRNA is given as “greatly increased”.

As for `CCOC(=O)N1CCN(C(=O)/C=C/C=C/c2ccc(OC)cc2)CC1` [R-23, Ethyl 4-((2E,4E)-5-(4-methoxyphenyl)penta-2,4-dienoyl)piperazine-1-carboxylate], the “Sirt1 mRNA level (FIG. 16)” value in the assay with Sirt1 mRNA is “greatly increased”.

On to `CCOC(=O)N1CCN(C(=O)/C=C/C=C/c2ccc(SC)cc2)CC1` [R-24, Ethyl 4-((2E,4E)-5-(4-(methylthio)phenyl)penta-2,4-dienoyl)piperazine-1-carboxylate], for which the “Ck2α mRNA level (FIG. 19)” value in the assay with Ck2α mRNA is “greatly reduced”.

On to `O=C(/C=C/C=C/c1ccc2c(c1)OCO2)N1CCCCC1` [piperine, Piperine], for which the “Fgf21 mRNA level (FIG. 12)” value in the assay on Fgf21 mRNA is given as “no effect”. In addition, the “Pparα mRNA level (FIG. 10)” value in the assay with Pparα mRNA is reported as “no effect”.

For the origin of these results see patent US20200157048A1, “(2E,4E)-5-PHENYL-PENTA-2,4-DIEN-1-ONE DERIVATIVE” (BIOWAY., INC, priority 2018, published 2020).
